Assay type in all cases: biochemical
One test has as its target CDK4/CCND3 (Homo sapiens, UniProt P11802). In words: CDK4 homogeneous time-resolved fluorescence (HTRF) kinase assay. In a few lines: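 Steps: compound plus 1.5 nM CDK4/CCND3, 20 min, 23 °C; add 1 mM ATP and 50 nM ULight-4E-BP1 (Thr37/46) peptide, 60 min; stop with 10 mM EDTA; add 2 nM Eu anti-phospho antibody, 60 min; read 665 nm. IC50 from 11-point half-log series starting 10 μM.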
For orientation: In TR-FRET formats the signal depends on donor and acceptor labels being close together.

A further test deals with CDK1/CCNB1 (Homo sapiens, UniProt P06493). In words: CDK1 homogeneous time-resolved fluorescence (HTRF) kinase assay. In outline: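 Kinase activity is measured as Lance signal (665 nm, or 665/615 nm ratio) from europium-labelled anti-phospho-Thr37/46 antibody binding ULight-4E-BP1 peptide. Reactions contain 0.5 nM enzyme, 1 mM ATP, 1% DMSO and run 60 min at 23 °C before EDTA quench.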

In another test the target is CDK6/CCND1 (Homo sapiens, UniProt Q00534). In words: CDK6 homogeneous time-resolved fluorescence (HTRF) kinase assay. In outline:
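Enzyme pre-incubated 20 min at 23 °C with compound, then reacted 60 min at 23 °C with 1 mM ATP and 50 nM ULight-4E-BP1 (Thr37/46) peptide; 1 nM enzyme, 1% DMSO. EDTA-stopped, Eu-anti-phospho antibody TR-FRET read (665 nm or 665/615 ratio); 11-point half-log titration from 10 μM gave IC50.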

Another test deals with CDK2/CCNE1 (Homo sapiens, UniProt P24941). In words: CDK2 homogeneous time-resolved fluorescence (HTRF) kinase assay. In outline: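 3 nM CDK2/CCNE1 was preincubated with compound for 20 min at 23 °C in HEPES buffer (pH not stated), then reacted 60 min with 1 mM ATP and 50 nM ULight-4E-BP1 (Thr37/46) peptide. After EDTA stop, Eu-anti-phospho-4E-BP1 antibody (2 nM) was added for 60 min and TR-FRET read at 665 nm.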

Setting [1] is: <25 nM, CDK2/CCNE, read-out: CDK2/CCNE IC50, <25 nM.
The mark [2] stands for this setting: 1.5 nM CDK4/CCND3, 1 mM ATP, read-out: CDK4/CCND IC50 25-250 nM.
[3] abbreviates: 0.5 nM CDK1/CCNB1, 1 mM ATP, read-out: CDK1/CCNB IC50 >250 nM.
The mark [4] stands for this setting: 1 nM CDK6/CCND1, 1 mM ATP, read-out: CDK6/CCND IC50 25-250 nM.
Setting [5] is: 3 nM CDK2/CCNE1, 1 mM ATP, read-out: CDK2/CCNE IC50 25-250 nM.
The mark [6] stands for this setting: 1.5 nM CDK4/CCND3, 1 mM ATP, read-out: CDK4/CCND IC50 >250 nM.
The mark [7] stands for this setting: 1 nM CDK6/CCND1, 1 mM ATP, read-out: CDK6/CCND IC50 >250 nM.
The mark [8] stands for this setting: 3 nM CDK2/CCNE1, 1 mM ATP, read-out: CDK2/CCNE IC50 >250 nM.
Setting [9] is: 0.5 nM CDK1/CCNB1, 1 mM ATP, read-out: CDK1/CCNB IC50 25-250 nM.
The mark [10] stands for this setting: 1 nM CDK6/CCND1, 1 mM ATP, read-out: CDK6/CCND IC50 <25 nM.
[11] abbreviates: 3 nM CDK2/CCNE1, 1 mM ATP, read-out: CDK2/CCNE IC50 <25 nM.

Structures can show the parent of a compound that is named as a salt. Where two headings read alike, the source gives them in different places. Bounds are passed on as bounds.

CDK6/CCND1, sequence (Q00534 whole entry): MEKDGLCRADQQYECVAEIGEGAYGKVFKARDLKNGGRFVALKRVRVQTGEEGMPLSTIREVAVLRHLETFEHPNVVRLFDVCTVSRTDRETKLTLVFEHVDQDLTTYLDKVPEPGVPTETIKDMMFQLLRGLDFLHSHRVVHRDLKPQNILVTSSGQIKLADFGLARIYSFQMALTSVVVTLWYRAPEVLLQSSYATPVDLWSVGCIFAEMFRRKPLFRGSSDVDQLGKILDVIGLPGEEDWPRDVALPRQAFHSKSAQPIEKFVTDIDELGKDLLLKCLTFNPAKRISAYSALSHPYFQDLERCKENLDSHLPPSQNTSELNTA
CDK6/CCND1, sequence (P24385 whole entry partner): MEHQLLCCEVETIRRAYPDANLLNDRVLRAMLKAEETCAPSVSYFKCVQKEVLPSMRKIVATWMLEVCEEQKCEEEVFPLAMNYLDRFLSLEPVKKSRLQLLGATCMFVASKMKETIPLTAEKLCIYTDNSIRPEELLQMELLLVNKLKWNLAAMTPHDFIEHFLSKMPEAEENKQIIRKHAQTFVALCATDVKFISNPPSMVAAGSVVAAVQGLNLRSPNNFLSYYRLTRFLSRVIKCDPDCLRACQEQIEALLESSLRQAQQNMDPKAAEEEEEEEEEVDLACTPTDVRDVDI
CDK4/CCND3, sequence (P11802 whole entry): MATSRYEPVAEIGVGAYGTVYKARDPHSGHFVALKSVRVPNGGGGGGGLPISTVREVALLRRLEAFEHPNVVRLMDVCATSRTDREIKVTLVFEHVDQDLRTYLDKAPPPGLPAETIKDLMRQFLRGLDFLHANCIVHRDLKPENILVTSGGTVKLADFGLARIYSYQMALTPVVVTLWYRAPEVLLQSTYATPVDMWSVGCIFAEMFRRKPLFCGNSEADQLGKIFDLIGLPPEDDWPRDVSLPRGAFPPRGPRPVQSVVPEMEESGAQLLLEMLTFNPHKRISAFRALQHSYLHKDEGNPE
CDK4/CCND3, sequence (P30281 whole entry partner): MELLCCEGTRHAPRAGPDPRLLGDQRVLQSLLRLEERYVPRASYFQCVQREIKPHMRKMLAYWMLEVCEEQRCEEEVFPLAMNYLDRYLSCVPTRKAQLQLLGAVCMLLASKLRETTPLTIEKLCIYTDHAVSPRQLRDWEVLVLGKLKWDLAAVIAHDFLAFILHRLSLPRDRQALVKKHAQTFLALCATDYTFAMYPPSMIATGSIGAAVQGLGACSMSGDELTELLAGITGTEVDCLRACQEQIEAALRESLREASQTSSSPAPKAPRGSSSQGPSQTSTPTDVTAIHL
CDK1/CCNB1, sequence (P06493 whole entry): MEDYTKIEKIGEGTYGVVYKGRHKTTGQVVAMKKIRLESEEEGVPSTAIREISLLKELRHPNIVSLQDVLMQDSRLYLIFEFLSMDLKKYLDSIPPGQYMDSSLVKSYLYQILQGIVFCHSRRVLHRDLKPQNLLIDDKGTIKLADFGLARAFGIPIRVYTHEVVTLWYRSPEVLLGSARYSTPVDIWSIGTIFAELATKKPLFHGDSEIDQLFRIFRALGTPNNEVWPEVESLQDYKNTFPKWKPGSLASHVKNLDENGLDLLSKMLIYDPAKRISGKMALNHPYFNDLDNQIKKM
CDK1/CCNB1, sequence (P14635 whole entry partner): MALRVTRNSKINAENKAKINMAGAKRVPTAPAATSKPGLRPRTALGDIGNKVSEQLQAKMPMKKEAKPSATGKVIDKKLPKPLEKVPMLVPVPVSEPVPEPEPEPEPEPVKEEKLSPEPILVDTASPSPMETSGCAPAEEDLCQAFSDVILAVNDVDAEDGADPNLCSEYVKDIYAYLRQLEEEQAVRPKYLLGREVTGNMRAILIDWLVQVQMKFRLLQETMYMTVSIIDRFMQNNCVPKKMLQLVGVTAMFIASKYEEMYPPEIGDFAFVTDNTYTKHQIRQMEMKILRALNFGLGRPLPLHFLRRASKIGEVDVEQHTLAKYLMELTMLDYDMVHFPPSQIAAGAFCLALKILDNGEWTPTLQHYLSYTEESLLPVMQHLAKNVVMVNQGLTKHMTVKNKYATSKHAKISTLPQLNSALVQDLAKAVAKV

`Cc1c(-c2nccc3cnc(Nc4cnc(O)c(N5CCN(CCO)CC5)c4)cc23)ccc2c1cnn2CC(C)(C)O` [Example 887, 5-((5-(1-(2-hydroxy-2-methylpropyl)-4-methyl-1H-indazol-5-yl)-2,6-naphthyridin-3-yl)amino)-3-(4-(2-hydroxyethyl)piperazin-1-yl)pyridin-2-ol]: the IC50 was greater than 250 nM on CDK4/CCND3 (>250 nM, CDK4/CCND, read-out: CDK4/CCND IC50, >250 nM); greater than 250 nM on CDK1/CCNB1 (>250 nM, CDK1/CCNB, read-out: CDK1/CCNB IC50 >250 nM); greater than 250 nM at CDK6/CCND1 (>250 nM, CDK6/CCND, 1 mM ATP, read-out: CDK6/CCND IC50, >250 nM); less than 25 nM on CDK2/CCNE1 (setting [1]).
As for `CC(=O)NC1CCN(c2ccc(Nc3cc4c(-c5ccc6c(cnn6CC(C)(C)O)c5C)nccc4cn3)cc2S(C)(=O)=O)C1` (stereo not shown) [Example 930, N-(1-(4-((5-(1-(2-hydroxy-2-methylpropyl)-4-methyl-1H-indazol-5-yl)-2,6-naphthyridin-3-yl)amino)-2-(methylsulfonyl)phenyl)pyrrolidin-3-yl)acetamide], the IC50 on CDK4/CCND3 (25-250 nM, CDK4/CCND, read-out: CDK4/CCND IC50, 25-250 nM) is 25 to 250 nM; on CDK1/CCNB1 (25-250 nM, CDK1/CCNB, read-out: CDK1/CCNB IC50, 25-250 nM), 25 to 250 nM; on CDK6/CCND1 (25-250 nM, CDK6/CCND, 1 mM ATP, read-out: CDK6/CCND IC50, 25-250 nM), 25 to 250 nM; on CDK2/CCNE1 (setting [1]), less than 25 nM.
For the compound `CS(=O)(=O)c1ccc(Nc2cc3c(C#Cc4ccc5c(c4)CCNC5)c(C#N)ccc3cn2)cc1` [Example 947, 3-((4-(methylsulfonyl)phenyl)amino)-5-((1,2,3,4-tetrahydroisoquinolin-6-yl)ethynyl)isoquinoline-6-carbonitrile], the IC50 at CDK4/CCND3 (setting [2]) was 25 to 250 nM; at CDK1/CCNB1 (setting [3]) it was greater than 250 nM; on CDK6/CCND1 (setting [4]), 25 to 250 nM; on CDK2/CCNE1 (setting [5]), 25 to 250 nM.
In the case of `CS(=O)(=O)c1ccc(Nc2ncc3ccc(C#N)c(C#Cc4ccc5c(c4)CCNC5)c3n2)cc1` [Example 948, 2-((4-(methylsulfonyl)phenyl)amino)-8-((1,2,3,4-tetrahydroisoquinolin-6-yl)ethynyl)quinazoline-7-carbonitrile, TFA Salt], the IC50 at CDK4/CCND3 (setting [6]), at CDK1/CCNB1 (setting [3]), at CDK6/CCND1 (setting [7]) and on CDK2/CCNE1 (setting [8]) was greater than 250 nM throughout.
As to `CS(=O)(=O)c1ccc(Nc2ncc3ccnc(C#Cc4ccc(C#N)cc4)c3n2)cc1` [Example 949, 4-((2-((4-(methylsulfonyl)phenyl)amino)pyrido[3,4-d]pyrimidin-8-yl)ethynyl)benzonitrile], the IC50 on CDK4/CCND3 (setting [6]), on CDK1/CCNB1 (setting [3]), at CDK6/CCND1 (setting [7]) and at CDK2/CCNE1 (setting [8]) was greater than 250 nM each time.
Turning to `CS(=O)(=O)c1ccc(Nc2cc3c(C4=CCCCC4)ncnc3cn2)cc1` [Example 950, 4-(cyclohex-1-en-1-yl)-N-(4-(methylsulfonyl)phenyl)pyrido[3,4-d]pyrimidin-6-amine], the IC50 at CDK4/CCND3 (setting [6]) was greater than 250 nM; on CDK1/CCNB1 (setting [3]), greater than 250 nM; on CDK6/CCND1 (setting [7]) it was greater than 250 nM; on CDK2/CCNE1 (setting [5]) it was 25 to 250 nM.
In the case of `CS(=O)(=O)c1ccc(Nc2cc3c(N4CCC(C#N)CC4)c(C#N)cnc3cn2)cc1` [Example 953, 4-(4-cyanopiperidin-1-yl)-6-((4-(methylsulfonyl)phenyl)amino)-1,7-naphthyridine-3-carbonitrile], the IC50 at CDK4/CCND3 (setting [6]), at CDK1/CCNB1 (setting [3]), at CDK6/CCND1 (setting [7]) and at CDK2/CCNE1 (setting [8]) was greater than 250 nM in each case.
In the case of `Cc1cc(N2CCC(C#N)CC2)c2nc(Nc3ccc(S(C)(=O)=O)cc3)ncc2c1` [Example 954, 1-(6-methyl-2-((4-(methylsulfonyl)phenyl)amino)quinazolin-8-yl)piperidine-4-carbonitrile], the IC50 on CDK4/CCND3 (setting [6]), on CDK1/CCNB1 (setting [3]), at CDK6/CCND1 (setting [7]) and at CDK2/CCNE1 (setting [8]) was greater than 250 nM in each case.
Consider `CS(=O)(=O)c1ccc(Nc2ncc3ccc(C#N)c(C#Cc4ccc(C#N)cc4)c3n2)cc1` [Example 955, 8-((4-cyanophenyl)ethynyl)-2-((4-(methylsulfonyl)phenyl)amino) quinazoline-7-carbonitrile], for which the IC50 on CDK4/CCND3 (setting [6]), at CDK1/CCNB1 (setting [3]), on CDK6/CCND1 (setting [7]) and on CDK2/CCNE1 (setting [8]) was greater than 250 nM each time.
Regarding `CS(=O)(=O)c1ccc(Nc2ncc3ccnc(C4=CCCCC4)c3n2)cc1` [Example 956, 8-(cyclohex-1-en-1-yl)-N-(4-(methylsulfonyl)phenyl)pyrido[3,4-d]pyrimidin-2-amine], the IC50 on CDK4/CCND3 (setting [2]) is 25 to 250 nM; on CDK1/CCNB1 (setting [9]), 25 to 250 nM; on CDK6/CCND1 (setting [10]) it was less than 25 nM; at CDK2/CCNE1 (setting [11]) it was less than 25 nM.
In the case of `CS(=O)(=O)c1ccc(Nc2ncc3ccc(C#N)c(N4CCC(C#N)CC4)c3n2)cc1` [Example 957, 8-(4-cyanopiperidin-1-yl)-2-((4-(methylsulfonyl)phenyl)amino) quinazoline-7-carbonitrile], the IC50 at CDK4/CCND3 (1.5 nM CDK4/CCND3, 1 mM ATP, read-out: CDK4/CCND IC50 <25 nM) was less than 25 nM; at CDK1/CCNB1 (setting [9]), 25 to 250 nM; on CDK6/CCND1 (setting [10]) it was less than 25 nM; at CDK2/CCNE1 (setting [11]), less than 25 nM.
Take `CS(=O)(=O)c1ccc(Nc2ncc3ccnc(N4CCC(C#N)CC4)c3n2)cc1` [Example 958, 1-(2-((4-(methylsulfonyl)phenyl)amino)pyrido [3,4-d]pyrimidin-8-yl)piperidine-4-carbonitrile]: the IC50 at CDK4/CCND3 (setting [2]) is 25 to 250 nM; on CDK1/CCNB1 (setting [3]), greater than 250 nM; on CDK6/CCND1 (setting [10]), less than 25 nM; at CDK2/CCNE1 (setting [11]) it was less than 25 nM.
With `Cc1c(-c2c(C#N)ccc3cnc(Nc4ccc(S(C)(=O)=O)cc4)nc23)ccc2c1cnn2CCO` [Example 962, 8-(1-(2-hydroxyethyl)-4-methyl-1H-indazol-5-yl)-2-((4-(methylsulfonyl)phenyl)amino) quinazoline-7-carbonitrile], the IC50 was 25 to 250 nM at CDK4/CCND3 (setting [2]), 25 to 250 nM on CDK1/CCNB1 (setting [9]), 25 to 250 nM at CDK6/CCND1 (setting [4]) and less than 25 nM on CDK2/CCNE1 (setting [11]).
With `Cc1c(-c2nccc3cnc(Nc4ccc(S(C)(=O)=O)cc4)nc23)ccc2c1cnn2CCO` [Example 963, 2-(4-methyl-5-(2-((4-(methylsulfonyl)phenyl)amino)pyrido [3,4-d]pyrimidin-8-yl)-1H-indazol-1-yl)ethan-1-ol], the IC50 was 25 to 250 nM at CDK4/CCND3 (setting [2]), 25 to 250 nM at CDK1/CCNB1 (setting [9]), 25 to 250 nM at CDK6/CCND1 (setting [4]) and less than 25 nM on CDK2/CCNE1 (setting [11]).
As for `Cc1c(-c2c(C#N)ccc3cnc(Nc4ccc(S(C)(=O)=O)cc4)nc23)ccc2nn(C)cc12` [Example 964, 8-(2,4-dimethyl-2H-indazol-5-yl)-2-((4-(methylsulfonyl)phenyl)amino) quinazoline-7-carbonitrile], the IC50 was 25 to 250 nM at CDK4/CCND3 (setting [2]), 25 to 250 nM on CDK1/CCNB1 (setting [9]), 25 to 250 nM on CDK6/CCND1 (setting [4]) and less than 25 nM on CDK2/CCNE1 (setting [11]).
As to `Cc1c(-c2nccc3cnc(Nc4ccc(S(C)(=O)=O)cc4)nc23)ccc2nn(C)cc12` [Example 965, 8-(2,4-dimethyl-2H-indazol-5-yl)-N-(4-(methylsulfonyl)phenyl)pyrido[3,4-d]pyrimidin-2-amine], the IC50 at CDK4/CCND3 (setting [6]) is greater than 250 nM; at CDK1/CCNB1 (setting [3]) it was greater than 250 nM; at CDK6/CCND1 (setting [7]) it was greater than 250 nM; on CDK2/CCNE1 (setting [11]) it was less than 25 nM.

The values above are taken from US20260325533A1, “CDK INHIBITOR COMPOUNDS” (ALEKSIA THERAPEUTICS, INC., priority 2023, published 2026).
